ChEMBL document CHEMBL5465560, “Selectivity Literature for EUbOPEN Chemogenomic Library” (2024)
Blank lines part the entries; values can stand above or below the compound they belong to.

What was measured:
[1] = molecular target: T1, Tyrosine-protein kinase Tec (Homo sapiens) (UniProt P42680); settings: at 10 µM
T1 sequence (whole entry): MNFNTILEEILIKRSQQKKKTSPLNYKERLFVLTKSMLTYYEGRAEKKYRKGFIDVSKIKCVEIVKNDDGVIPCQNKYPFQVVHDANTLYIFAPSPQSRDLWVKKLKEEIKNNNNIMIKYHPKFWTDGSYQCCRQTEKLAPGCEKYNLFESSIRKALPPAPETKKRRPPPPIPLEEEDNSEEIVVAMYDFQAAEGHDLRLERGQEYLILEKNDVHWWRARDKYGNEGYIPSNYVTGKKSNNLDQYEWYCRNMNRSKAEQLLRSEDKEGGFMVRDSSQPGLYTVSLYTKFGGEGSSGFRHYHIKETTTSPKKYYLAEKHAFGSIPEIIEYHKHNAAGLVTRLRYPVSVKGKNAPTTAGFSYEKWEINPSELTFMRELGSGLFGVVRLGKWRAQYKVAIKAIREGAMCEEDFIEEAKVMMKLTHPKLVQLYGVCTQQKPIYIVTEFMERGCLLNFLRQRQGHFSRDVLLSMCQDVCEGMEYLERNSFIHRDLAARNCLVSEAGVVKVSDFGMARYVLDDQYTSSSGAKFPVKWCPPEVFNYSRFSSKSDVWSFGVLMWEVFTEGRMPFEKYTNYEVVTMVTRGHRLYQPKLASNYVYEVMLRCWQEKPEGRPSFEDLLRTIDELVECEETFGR

[2] = molecular target: T2, Serine/threonine-protein kinase LATS2 (Homo sapiens) (UniProt Q9NRM7); test: Selectivity interaction (Ambit KINOMEscan and KiNATiv profiling in Jurkat cells) EUB0000090b LATS2; assay type: cell-based; settings: at 1 µM
T2 sequence (whole entry): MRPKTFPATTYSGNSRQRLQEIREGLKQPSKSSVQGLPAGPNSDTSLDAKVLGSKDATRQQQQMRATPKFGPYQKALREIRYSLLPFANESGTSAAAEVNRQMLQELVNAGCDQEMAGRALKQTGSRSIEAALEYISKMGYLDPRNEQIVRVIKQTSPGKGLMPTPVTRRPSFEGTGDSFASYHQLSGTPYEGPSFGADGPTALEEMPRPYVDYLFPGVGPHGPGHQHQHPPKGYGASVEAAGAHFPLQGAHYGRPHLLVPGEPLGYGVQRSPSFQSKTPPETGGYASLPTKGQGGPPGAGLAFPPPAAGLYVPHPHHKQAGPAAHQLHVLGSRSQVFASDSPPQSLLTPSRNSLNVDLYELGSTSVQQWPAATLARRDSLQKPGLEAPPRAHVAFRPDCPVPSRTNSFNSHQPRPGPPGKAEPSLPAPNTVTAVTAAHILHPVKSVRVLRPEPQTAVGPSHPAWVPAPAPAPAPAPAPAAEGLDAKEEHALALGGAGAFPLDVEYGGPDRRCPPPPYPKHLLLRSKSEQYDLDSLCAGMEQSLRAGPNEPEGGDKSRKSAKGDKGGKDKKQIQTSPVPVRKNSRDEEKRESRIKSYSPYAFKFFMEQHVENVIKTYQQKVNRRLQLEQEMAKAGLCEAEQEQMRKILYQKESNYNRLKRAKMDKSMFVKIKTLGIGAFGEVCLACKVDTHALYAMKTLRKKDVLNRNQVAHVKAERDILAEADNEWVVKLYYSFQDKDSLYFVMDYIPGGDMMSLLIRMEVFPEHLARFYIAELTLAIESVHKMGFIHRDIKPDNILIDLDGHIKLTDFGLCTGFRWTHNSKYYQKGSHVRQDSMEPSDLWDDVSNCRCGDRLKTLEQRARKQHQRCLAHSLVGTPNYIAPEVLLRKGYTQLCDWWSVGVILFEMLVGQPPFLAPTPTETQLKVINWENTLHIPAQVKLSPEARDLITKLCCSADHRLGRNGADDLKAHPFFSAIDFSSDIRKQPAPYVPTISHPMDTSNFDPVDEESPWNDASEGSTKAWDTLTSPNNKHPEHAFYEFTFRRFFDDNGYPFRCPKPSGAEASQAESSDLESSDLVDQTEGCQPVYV

[3] = molecular target: Phosphatidylinositol 4,5-bisphosphate 3-kinase catalytic subunit alpha isoform (Homo sapiens) (UniProt P42336); test: (§1) Selectivity interaction (Ambit KINOMEscan and KiNATiv profiling in Jurkat cells) EUB0000090b PIK3CA; assay type: cell-based; settings: at 1 µM
[4] = tested on: Phosphatidylinositol 4,5-bisphosphate 3-kinase catalytic subunit alpha isoform (Homo sapiens), P42336 [C420R]; test: as §1; assay type: cell-based; settings: at 1 µM
[5] = tested on: Phosphatidylinositol 4,5-bisphosphate 3-kinase catalytic subunit alpha isoform (Homo sapiens), P42336 [E542K]; test: as §1; assay type: cell-based; settings: at 1 µM
[6] = tested on: Phosphatidylinositol 4,5-bisphosphate 3-kinase catalytic subunit alpha isoform (Homo sapiens), P42336 [E545A]; test: as §1; assay type: cell-based; settings: at 1 µM
[7] = tested on: Phosphatidylinositol 4,5-bisphosphate 3-kinase catalytic subunit alpha isoform (Homo sapiens), P42336 [E545K]; test: as §1; assay type: cell-based; settings: at 1 µM
[8] = tested on: Phosphatidylinositol 4,5-bisphosphate 3-kinase catalytic subunit alpha isoform (Homo sapiens), P42336 [H1047L]; test: as §1; assay type: cell-based; settings: at 1 µM
[9] = tested on: Phosphatidylinositol 4,5-bisphosphate 3-kinase catalytic subunit alpha isoform (Homo sapiens), P42336 [H1047Y]; test: as §1; assay type: cell-based; settings: at 1 µM
[10] = tested on: Phosphatidylinositol 4,5-bisphosphate 3-kinase catalytic subunit alpha isoform (Homo sapiens), P42336 [I800L]; test: as §1; assay type: cell-based; settings: at 1 µM
[11] = tested on: Phosphatidylinositol 4,5-bisphosphate 3-kinase catalytic subunit alpha isoform (Homo sapiens), P42336 [M1043I]; test: as §1; assay type: cell-based; settings: at 1 µM
[12] = tested on: Phosphatidylinositol 4,5-bisphosphate 3-kinase catalytic subunit alpha isoform (Homo sapiens), P42336 [Q546K]; test: as §1; assay type: cell-based; settings: at 1 µM
[13] = molecular target: Tyrosine-protein kinase ABL1 (Homo sapiens, UniProt P00519); test: Selectivity interaction (Kinase panel (Invitrogen)) EUB0000639a ABL1; settings: at 200 nM
[14] = molecular target: Androgen receptor (Homo sapiens) (UniProt P10275); test: Selectivity interaction (Panel of non-epigenetic targets (kinases, GPCRs, ion channels, and transporters, Eurofins) ) EUB0000271b AR; settings: at 1 µM
[15] = molecular target: Mitogen-activated protein kinase 14 (Homo sapiens, UniProt Q16539); test: Selectivity interaction (KinomeScan (DiscoverX)) EUB0001079a MAPK14; settings: at 1 µM
[16] = molecular target: Dual specificity tyrosine-phosphorylation-regulated kinase 1A (Homo sapiens, UniProt Q13627); test: Selectivity interaction (ProQinase) EUB0000171b DYRK1A
[17] = molecular target: Mitogen-activated protein kinase 10 (Homo sapiens, UniProt P53779); test: Selectivity interaction (KinomeScan (DiscoverX)) EUB0000045b MAPK10
[18] = molecular target: Casein kinase I isoform gamma-1 (Homo sapiens) (UniProt Q9HCP0); test: Selectivity interaction (KinomeScan (DiscoverX)) EUB0001619a CSNK1G1; settings: at 1 µM
Casein kinase I isoform gamma-1 (Homo sapiens), sequence (Q9HCP0 whole entry, looked up, canonical isoform): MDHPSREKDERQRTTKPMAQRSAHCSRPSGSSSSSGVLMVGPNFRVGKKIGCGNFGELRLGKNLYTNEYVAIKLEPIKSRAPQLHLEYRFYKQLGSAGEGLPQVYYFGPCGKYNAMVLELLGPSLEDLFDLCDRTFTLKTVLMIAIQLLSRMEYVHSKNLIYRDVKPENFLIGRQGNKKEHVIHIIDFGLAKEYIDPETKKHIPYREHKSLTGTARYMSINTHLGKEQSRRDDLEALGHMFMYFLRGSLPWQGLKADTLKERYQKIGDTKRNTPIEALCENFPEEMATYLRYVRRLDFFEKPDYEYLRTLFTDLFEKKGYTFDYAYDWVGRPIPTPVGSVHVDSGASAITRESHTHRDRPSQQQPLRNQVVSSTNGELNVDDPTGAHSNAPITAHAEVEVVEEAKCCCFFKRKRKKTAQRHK

Mitogen-activated protein kinase 10, sequence (P53779 whole entry, canonical isoform): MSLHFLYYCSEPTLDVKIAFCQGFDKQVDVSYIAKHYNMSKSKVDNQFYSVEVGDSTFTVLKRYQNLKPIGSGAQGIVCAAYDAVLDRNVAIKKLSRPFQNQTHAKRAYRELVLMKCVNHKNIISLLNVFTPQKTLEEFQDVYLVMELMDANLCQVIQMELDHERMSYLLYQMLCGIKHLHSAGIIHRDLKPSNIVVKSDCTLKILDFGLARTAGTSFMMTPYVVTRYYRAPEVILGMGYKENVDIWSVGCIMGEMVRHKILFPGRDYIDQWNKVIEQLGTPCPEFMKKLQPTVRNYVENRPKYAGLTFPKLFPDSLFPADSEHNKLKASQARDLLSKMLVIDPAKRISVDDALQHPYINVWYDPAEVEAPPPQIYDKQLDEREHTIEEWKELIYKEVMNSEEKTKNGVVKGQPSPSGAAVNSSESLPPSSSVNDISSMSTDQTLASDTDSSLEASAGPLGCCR
Phosphatidylinositol 4,5-bisphosphate 3-kinase catalytic subunit alpha isoform (Homo sapiens), P42336 [E545A], sequence (P42336 whole entry E545A, canonical isoform): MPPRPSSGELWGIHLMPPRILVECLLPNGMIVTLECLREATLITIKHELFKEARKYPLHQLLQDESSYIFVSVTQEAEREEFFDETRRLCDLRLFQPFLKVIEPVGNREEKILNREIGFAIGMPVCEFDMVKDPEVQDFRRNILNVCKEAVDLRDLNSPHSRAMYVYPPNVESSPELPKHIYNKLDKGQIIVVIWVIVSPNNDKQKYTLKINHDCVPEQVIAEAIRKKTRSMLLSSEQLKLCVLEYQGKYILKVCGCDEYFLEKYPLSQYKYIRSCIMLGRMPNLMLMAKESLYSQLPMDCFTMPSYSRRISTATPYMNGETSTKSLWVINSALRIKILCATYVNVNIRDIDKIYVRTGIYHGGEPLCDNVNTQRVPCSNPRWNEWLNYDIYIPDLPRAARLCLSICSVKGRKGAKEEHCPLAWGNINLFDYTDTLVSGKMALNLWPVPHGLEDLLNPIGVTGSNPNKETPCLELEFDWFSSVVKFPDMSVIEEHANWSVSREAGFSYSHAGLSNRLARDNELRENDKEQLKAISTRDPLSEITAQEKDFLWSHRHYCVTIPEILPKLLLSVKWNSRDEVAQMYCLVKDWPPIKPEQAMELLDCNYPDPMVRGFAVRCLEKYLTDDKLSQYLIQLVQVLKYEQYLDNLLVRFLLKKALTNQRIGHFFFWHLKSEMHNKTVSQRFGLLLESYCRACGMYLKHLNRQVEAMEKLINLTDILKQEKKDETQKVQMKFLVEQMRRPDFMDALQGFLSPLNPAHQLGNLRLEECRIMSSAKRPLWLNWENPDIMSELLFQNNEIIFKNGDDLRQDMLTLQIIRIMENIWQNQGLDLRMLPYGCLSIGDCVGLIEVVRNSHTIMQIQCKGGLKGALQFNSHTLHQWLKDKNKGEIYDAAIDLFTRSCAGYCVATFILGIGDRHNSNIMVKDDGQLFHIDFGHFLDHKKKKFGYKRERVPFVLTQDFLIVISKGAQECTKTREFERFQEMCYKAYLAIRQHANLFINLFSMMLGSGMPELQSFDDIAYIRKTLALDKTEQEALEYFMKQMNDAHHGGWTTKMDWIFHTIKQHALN
Phosphatidylinositol 4,5-bisphosphate 3-kinase catalytic subunit alpha isoform (Homo sapiens), P42336 [H1047Y], sequence (P42336 whole entry H1047Y, canonical isoform): as the sequence (P42336 whole entry E545A, canonical isoform) above, with A545E, H1047Y counted along it
Mitogen-activated protein kinase 14, sequence (Q16539 whole entry): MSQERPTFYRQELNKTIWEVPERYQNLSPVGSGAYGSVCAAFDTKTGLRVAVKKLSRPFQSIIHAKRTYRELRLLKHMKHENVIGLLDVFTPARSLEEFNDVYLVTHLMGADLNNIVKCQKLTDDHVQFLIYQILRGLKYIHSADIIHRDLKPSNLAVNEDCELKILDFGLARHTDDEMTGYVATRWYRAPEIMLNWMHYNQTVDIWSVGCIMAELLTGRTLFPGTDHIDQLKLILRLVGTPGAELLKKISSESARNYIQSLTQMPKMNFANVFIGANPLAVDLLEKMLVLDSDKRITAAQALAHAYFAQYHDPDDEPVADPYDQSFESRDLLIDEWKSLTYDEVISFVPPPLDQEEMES
Phosphatidylinositol 4,5-bisphosphate 3-kinase catalytic subunit alpha isoform (Homo sapiens), P42336 [M1043I], sequence (P42336 whole entry M1043I, canonical isoform): as the sequence (P42336 whole entry E545A, canonical isoform) above, with A545E, M1043I counted along it

Structure (SMILES): Cc1cc([C@@H](C)Nc2ccccc2C(=O)O)c2nc(N3CCOCC3)cc(=O)n2c1 [AZD-6482]
% of control [1]: 91%

Structure (SMILES): CN(C)C/C=C/C(=O)Nc1ccc(C(=O)N2CCCC(Nc3ncc(Cl)c(-c4c[nH]c5ccccc45)n3)C2)cc1 (stereo not given)
% of control [2]: 100% | % of control [3]: 92% | % of control [4]: 87% | % of control [5]: 93% | % of control [6]: 83% | % of control [7]: 99% | % of control [8]: 100% | % of control [9]: 95% | % of control [10]: 89% | % of control [11]: 100% | % of control [12]: 98%

% of inhibition [13]: 2.51%
Structure (SMILES): CC[C@@H]1[C@H](F)C(=O)N[C@@H]1COc1nccc2cc(C(N)=O)c(OC)cc12 [ZIMLOVISERTIB]

Structure (SMILES): Cc1cc(C)cc([C@@H]2c3cc(C)ccc3NC(=O)CN2C(=O)c2ccc(Br)s2)c1
% of inhibition [14]: -7%

Structure (SMILES): Nc1cnc(N2CCc3cc(S(=O)(=O)Nc4c(F)cc(Cl)cc4F)cc(N4CCCC4=O)c32)nc1 [TP-020n]
% of control [15]: 100%

% of control ([16]; at 1 µM): 92% | % of control ([16]; at 5 µM): 70%
Structure (SMILES): C=CC(=O)Nc1cccc(C(=O)Nc2ccc(Nc3cc(-c4[nH]c(SC)nc4C)ccn3)cc2)c1

Structure (SMILES): C=CC(=O)Nc1cc(-n2c(=O)ccc3cnc4ccc(-c5ccc(NS(C)(=O)=O)cc5)cc4c32)ccc1C
% of control ([17]; at 1 µM): 100% | % of control ([17]; at 10 µM): 20%

Structure (SMILES): N#Cc1cccc(-c2c[nH]c3ncnc(N4CCOCC4)c23)c1
% of control [18]: 100%
